US20250308625A1, “METHOD FOR ESTIMATING A DYNAMIC MOLECULAR PROGRAM OF A CELL” (Yale University, priority 2022, published 2025)

Molecular target: T1, ESRRA (Homo sapiens, UniProt P11474)
T1 construct: endogenous in cells; host or cells: HCC38 CD44hi cells (2D culture)
T1 sequence (P11474 1-423): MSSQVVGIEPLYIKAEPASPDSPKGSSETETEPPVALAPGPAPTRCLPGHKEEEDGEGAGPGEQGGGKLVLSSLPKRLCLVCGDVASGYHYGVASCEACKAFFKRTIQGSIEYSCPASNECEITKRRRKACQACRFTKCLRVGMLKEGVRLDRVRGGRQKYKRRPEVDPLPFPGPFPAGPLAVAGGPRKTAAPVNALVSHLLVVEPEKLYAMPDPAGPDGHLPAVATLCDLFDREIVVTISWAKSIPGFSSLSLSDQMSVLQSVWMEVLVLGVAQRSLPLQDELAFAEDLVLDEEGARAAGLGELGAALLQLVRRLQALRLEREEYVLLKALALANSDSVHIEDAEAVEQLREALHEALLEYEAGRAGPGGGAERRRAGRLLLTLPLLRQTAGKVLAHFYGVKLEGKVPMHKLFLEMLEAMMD
Test: Western blot of CDH1 expression after ESRRA knockdown (siRNA) or ESRRA inhibition (C14) in 2D cultured HCC38 CD44hi cells
Type: cell-based
Conditions: 2D culture, C14 at 5 and 10 μM vs DMSO, 48 hours post-treatment, normalized to β-Actin, n=3, p≤0.05
Experimental: Preliminary validation of the MET network included an in-vitro knockdown of ESRRA in HCC38 CD44^hi cells (n=3 biological replicates). Predesigned siRNA specific to ESRRA and scrambled siRNA were purchased from Integrated DNA Technologies, USA (TriFECTa® RNAi Kit, Design ID hs.Ri.ESRRA.13). HCC38 CD44^hi cells were seeded in 24 well plates at a density of 9000 cells/well and ESRRA knockdown was performed using 10 nM of pooled siRNA (hs.Ri.ESRRA.13.1, hs.Ri.ESRRA.13.2 and hs.Ri.ESRRA.13.3) using Lipofectamine RNAiMax (ThermoFisher Scientific, USA) as per the manufacturer's protocol. Cells were harvested for protein extraction 48 hrs post siRNA transfection to study the downstream effect on CDH1 expression upon ESRRA knockdown using western blot. […]
Proteins were extracted from control and treated cells using ice cold modified RIPA buffer (50 mM Tris-HCl pH 7.5, 150 mM NaCl, 1 mM EDTA, 1 mM EGTA, 1% Triton X-100, 0.1% SDS with supplemented with 1× protease and phosphatase inhibitor cocktails). […] Proteins were quantified using the Pierce™ BCA Protein Assay Kit (Cat. 23227, Thermo Fisher Scientific, USA) as per the manufacturer's instructions. […] The signal intensity of the bands in western blots was quantified using Image Studio Lite version 5.2 (LI-COR Biotechnology, USA).

CC(C)c1cccc(-n2cc(C(=O)c3ccccc3N)nn2)c1 [ESRRA antagonist, (2-Aminophenyl) (1-(3-isopropylphenyl)-1H-1,2,3-triazol-4-yl) methanone]
CDH1 expression (western blot, relative fold-change): significant increase
